Measurements: patent US20050112573A1, “Method of detecting toxic substance” (priority 2001, published 2005)

Test system: yeast genes (level of expressed mRNA)
Assay: DNA chip analysis of expressed mRNA of yeast genes after 2 h culture with a toxic chemical substance
Format: cell-based, Saccharomyces cerevisiae S288C
Experimental: Yeast (Saccharomyces cerevtisiae S288C (α SUC2mal mel gap2 CUP1)) were cultured at 25° C. on YPD medium (yeast extract 1%, polypepton 2%, glucose 2%). One of toxic chemical substances was added to the cell at logarithmic growth phase, and the cell was further cultured for two hours. Cell was cultured without any chemical substance in the same condition, and was used as control. Concentrations of the chemical substances were defined to inhibit the growth of the yeast but not lead to death.
After the completion of cultivation, the culture was centrifuged to collect the cells. To the cells, sodium acetate buffer (50 mM sodium acetate, 10 mM EDTA, 1% SDS) was added, and the mixture was shaken at 65° C. for five minutes, followed by returning to room temperature, and obtaining the supernatant, which procedure was repeated two times. To the supernatant, ½ amount of a solution of phenol/chloroform was added, and the mixture was centrifuged to give a supernatant, which was added with an equal amount of chloroform, and the mixture was centrifuged to give a supernatant. To the supernatant, an equal amount of isopropanol containing 0.3 M sodium acetate was added, and the mixture was allowed to stand at room temperature for 30 minutes, after which the mixture was centrifuged to give a sediment of the whole RNAs. Seventy % ethanol was added to the sediment, and the mixture was again centrifuged to give a sediment, which was then dried and dissolved in water. mRNA was isolated from the whole RNAs as followings. In view of the fact that a poly A chain is attached to the 3′ terminus of mRNA, a polynucleotide having a poly T structure which was immobilized on the surface of latex beads was used to trap the mRNA, and then the mRNA was washed and eluted with spine column (Oligotex-dT30<Super>mRNA Purification Kit, Takara). Reverse transcription of the mRNA was conducted with a reverse transcriptase (Super Script II Reverse Transcriptase; catalogue No. 18064-014, GibcoBRL) using fluorescence-labeled nucleotides to give cDNAs that were introduced with Cy3-dUTP or Cy5-dUTP during the reverse transcription.
The labeled cDNAs were dissolved in TE buffer (10 mM Tris-HCl/1 mM EDTA, pH8.0), and the solution was dropped on the DNA chip containing the whole genes of yeast (DNA Chip Research Inc. Japan) so that the cDNAs were hybridized on the DNA chip at 65° C. for over 12 hours. The fluoresces intensity of the DNA chip was read with a scanner, and the ratio relative to the fluorescence intensity resulting from the absence of chemical substance was estimated as the following, which is shown in Tables 1 to 9: [formula]
In the Tables, “Intensity” indicated in the rightmost column is a value of the level of expressed mRNA of each gene in control cells as divided by the average level of the expressions of the whole genes.

COc1cc(CNC(=O)CCCCC=CC(C)C)ccc1O [(12), 8-methyl-N-vanillyl-6-nonenamide]
level of expressed mRNA in the presence of chemical substance/in its absence (gene YML110C): 1.1 | The level of expressed mRNA in the presence of chemical substance/absence: YML118W (gene YML118W): 0.9 | The level of expressed mRNA in the presence of chemical substance/absence: YMR068W (gene YMR068W): 0.7 | The level of expressed mRNA in the presence of chemical substance/absence: YMR071C (gene YMR071C): 0.7 | level of expressed mRNA in the presence of chemical substance/in its absence (gene YMR105C): 1.7 | The level of expressed mRNA in the presence of chemical substance/absence: YMR114C (gene YMR114C): 0.9 | The level of expressed mRNA in the presence of chemical substance/absence: YMR115W (gene YMR115W): 1.0 | The level of expressed mRNA in the presence of chemical substance/absence: YMR160W (gene YMR160W): 1.0 | level of expressed mRNA in the presence of chemical substance/in its absence (gene YMR189W): 0.6 | The level of expressed mRNA in the presence of chemical substance/absence: YMR258C (gene YMR258C): 0.9 | level of expressed mRNA in the presence of chemical substance/in its absence (gene YMR271C): 1.3 | level of expressed mRNA in the presence of chemical substance/in its absence (gene YMR272C): 1.2 | level of expressed mRNA in the presence of chemical substance/in its absence (gene YMR296C): 0.8 | level of expressed mRNA in the presence of chemical substance/in its absence (gene YNL012W): 1.3 | The level of expressed mRNA in the presence of chemical substance/absence: YNL026W (gene YNL026W): 0.9 | level of expressed mRNA in the presence of chemical substance/in its absence (gene YNL037C): 1.3 | level of expressed mRNA in the presence of chemical substance/in its absence (gene YNL045W): 0.9 | The level of expressed mRNA in the presence of chemical substance/absence: YNL058C (gene YNL058C): 1.0 | The level of expressed mRNA in the presence of chemical substance/absence: YNL063W (gene YNL063W): 1.0 | level of expressed mRNA in the presence of chemical substance/in its absence (gene YNL104C): 1.1 | level of expressed mRNA in the presence of chemical substance/in its absence (gene YNL106C): 0.8 | level of expressed mRNA in the presence of chemical substance/in its absence (gene YNL130C): 0.9 | level of expressed mRNA in the presence of chemical substance/in its absence (gene YNL169C): 1.0 | The level of expressed mRNA in the presence of chemical substance/absence: YNL176C (gene YNL176C): 0.6 | The level of expressed mRNA in the presence of chemical substance/absence: YNL181W (gene YNL181W): 0.8 | The level of expressed mRNA in the presence of chemical substance/absence: YNL191W (gene YNL191W): 0.5 | The level of expressed mRNA in the presence of chemical substance/absence: YNL194C (gene YNL194C): 0.5 | The level of expressed mRNA in the presence of chemical substance/absence: YNL200C (gene YNL200C): 0.9 | The level of expressed mRNA in the presence of chemical substance/absence: YNL212W (gene YNL212W): 0.8 | level of expressed mRNA in the presence of chemical substance/in its absence (gene YNL231C): 1.8 | The level of expressed mRNA in the presence of chemical substance/absence: YNL253W (gene YNL253W): 0.8 | The level of expressed mRNA in the presence of chemical substance/absence: YNL265C (gene YNL265C): 0.8 | The level of expressed mRNA in the presence of chemical substance/absence: YNL276C (gene YNL276C): 0.9 | level of expressed mRNA in the presence of chemical substance/in its absence (gene YNL322C): 0.7 | level of expressed mRNA in the presence of chemical substance/in its absence (gene YNR002C): 1.2 | level of expressed mRNA in the presence of chemical substance/in its absence (gene YNR019W): 1.0 | level of expressed mRNA in the presence of chemical substance/in its absence (gene YNR033W): 1.1 | The level of expressed mRNA in the presence of chemical substance/absence: YNR051C (gene YNR051C): 0.9 | level of expressed mRNA in the presence of chemical substance/in its absence (gene YNR059W): 0.8 | The level of expressed mRNA in the presence of chemical substance/absence: YOL026C (gene YOL026C): 0.9 | The level of expressed mRNA in the presence of chemical substance/absence: YOL030W (gene YOL030W): 0.9 | level of expressed mRNA in the presence of chemical substance/in its absence (gene YOL058W): 1.3 | level of expressed mRNA in the presence of chemical substance/in its absence (gene YOL126C): 1.1 | level of expressed mRNA in the presence of chemical substance/in its absence (gene YOL143C): 1.2 | level of expressed mRNA in the presence of chemical substance/in its absence (gene YOL153C): 1.9 | level of expressed mRNA in the presence of chemical substance/in its absence (gene YOL157C): 1.2 | The level of expressed mRNA in the presence of chemical substance/absence: YOR022C (gene YOR022C): 0.8 | The level of expressed mRNA in the presence of chemical substance/absence: YOR087W (gene YOR087W): 0.8 | The level of expressed mRNA in the presence of chemical substance/absence: YOR088W (gene YOR088W): 0.6 | level of expressed mRNA in the presence of chemical substance/in its absence (gene YOR099W): 1.1 | level of expressed mRNA in the presence of chemical substance/in its absence (gene YOR130C): 0.9 | level of expressed mRNA in the presence of chemical substance/in its absence (gene YOR136W): 1.2 | The level of expressed mRNA in the presence of chemical substance/absence: YOR138C (gene YOR138C): 0.9 | The level of expressed mRNA in the presence of chemical substance/absence: YOR155C (gene YOR155C): 0.5 | The level of expressed mRNA in the presence of chemical substance/absence: YOR253W (gene YOR253W): 0.7 | The level of expressed mRNA in the presence of chemical substance/absence: YOR267C (gene YOR267C): 0.9 | The level of expressed mRNA in the presence of chemical substance/absence: YOR325W (gene YOR325W): 0.9 | level of expressed mRNA in the presence of chemical substance/in its absence (gene YOR336W): 1.0
